The structures appear in SMILES notation. pIC50: −log10 of the molar value. Read-outs that look alike come from different tables or passages of the source. Where a SMILES comes first, the peptide text is derived from it. Bridges are numbered along the chain shown (N, C = ends). [ ]: non-standard residue; d: D form. NMeF = CN[C@@H](Cc1ccccc1)C(=O)O; NMeNle = CCCC[C@H](NC)C(=O)O; dThz = O=C(O)[C@H]1CSCN1; Dap = NC[C@H](N)C(=O)O

The target in the assay is T1, Human PD-L1/PD-1 (Homo sapiens, UniProt Q9NZQ7).
T1 construct: TVMV protease cleavage site (C); made in house; host or cells: HEK293T cells
Put plainly: HTRF Human PD-L1/PD-1 binding assay (PD-1-Ig/PD-L1-His). The settings on record: PD-L1-His 10 nM, PD-1-Ig 20 nM. The method in brief:
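Step 1: compound with PD-L1-His (10 nM final), 15 min. Step 2: PD-1-Ig (20 nM final), 15 min. Step 3: Eu-cryptate anti-Ig (1 nM) plus APC anti-His (20 nM), 30 min equilibration. Signal taken as 665 nm/620 nm ratio.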
(In TR-FRET formats the signal depends on donor and acceptor labels being close together.)

The mark [1] stands for this setting: class symbol, read-out: HTRF Human PD-L1/PD-1 Binding Assay IC50 Range.

T1 sequence (Q9NZQ7 with tags, fused parts or gaps): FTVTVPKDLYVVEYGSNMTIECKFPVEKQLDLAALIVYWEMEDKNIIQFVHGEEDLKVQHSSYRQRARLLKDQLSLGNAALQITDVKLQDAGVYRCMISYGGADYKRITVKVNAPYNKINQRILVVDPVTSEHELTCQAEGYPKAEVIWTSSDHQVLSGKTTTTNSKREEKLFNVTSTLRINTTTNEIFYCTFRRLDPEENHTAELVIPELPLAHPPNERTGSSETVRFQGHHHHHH

On to `CCCC[C@H]1C(=O)N2CCC[C@@H]2C(=O)N[C@@H](CO)C(=O)N[C@@H](C(C)C)C(=O)N(C)[C@@H](Cc2ccccc2)C(=O)N[C@@H](Cc2ccc(O)cc2)C(=O)N2CCC[C@@H]2C(=O)N[C@@H](Cc2c[nH]c3ccccc23)C(=O)N[C@@H](Cc2ccc(O)cc2)C(=O)N[C@@H](CC(C)C)C(=O)N[C@H](C(=O)NCC(N)=O)CSCC(=O)N[C@@H](Cc2ccccc2)C(=O)N(C)[C@@H](Cc2ccccc2)C(=O)N1C` [Example 10067] ({CH2CO}-F[NMeF][NMeNle][dP]SV[NMeF]Y[dP]WYLCG-NH2; thioether N-13), for which, under setting [1], the pIC50 was 8.00 to 9.00. On to `CCCC[C@H]1C(=O)N2CCC[C@@H]2C(=O)N[C@@H](CC(=O)O)C(=O)N[C@@H](C(C)C)C(=O)N(C)[C@@H](Cc2ccccc2)C(=O)N[C@@H](Cc2ccc(O)cc2)C(=O)N2CSC[C@@H]2C(=O)N[C@@H](Cc2c[nH]c3ccccc23)C(=O)N[C@@H](Cc2ccc(O)cc2)C(=O)N[C@@H](CC(C)C)C(=O)N[C@H](C(=O)NCC(N)=O)CSCC(=O)N[C@@H](Cc2ccccc2)C(=O)N(C)[C@@H](Cc2ccccc2)C(=O)N1C` [Example 10068] ({CH2CO}-F[NMeF][NMeNle][dP]DV[NMeF]Y[dThz]WYLCG-NH2; thioether N-13), for which the pIC50 under setting [1] is 8.00 to 9.00. Consider `CCCC[C@H]1C(=O)N2CCC[C@@H]2C(=O)N[C@@H](CC(N)=O)C(=O)N[C@@H](C(C)C)C(=O)N(C)[C@@H](Cc2ccccc2)C(=O)N[C@@H](Cc2ccc(O)cc2)C(=O)N2CSC[C@@H]2C(=O)N[C@@H](Cc2c[nH]c3ccccc23)C(=O)N[C@@H](Cc2ccc(O)cc2)C(=O)N[C@@H](CC(C)C)C(=O)N[C@H](C(=O)NCC(N)=O)CSCC(=O)N[C@@H](Cc2ccccc2)C(=O)N(C)[C@@H](Cc2ccccc2)C(=O)N1C` [Example 10069] ({CH2CO}-F[NMeF][NMeNle][dP]NV[NMeF]Y[dThz]WYLCG-NH2; thioether N-13), for which the pIC50 (read-out: HTRF Human PD-L1/PD-1 Binding Assay IC50) was 7.90. As for `CCCC[C@H]1C(=O)N2CCC[C@@H]2C(=O)N[C@@H](CO)C(=O)N[C@@H](C(C)C)C(=O)N(C)[C@@H](Cc2ccccc2)C(=O)N[C@@H](Cc2ccc(O)cc2)C(=O)N2CSC[C@@H]2C(=O)N[C@@H](Cc2c[nH]c3ccccc23)C(=O)N[C@@H](Cc2ccc(O)cc2)C(=O)N[C@@H](CC(C)C)C(=O)N[C@H](C(=O)NCC(N)=O)CSCC(=O)N[C@@H](Cc2ccccc2)C(=O)N(C)[C@@H](Cc2ccccc2)C(=O)N1C` [Example 10070] ({CH2CO}-F[NMeF][NMeNle][dP]SV[NMeF]Y[dThz]WYLCG-NH2; thioether N-13), under setting [1], the pIC50 is 7.00 to 8.00. Same read-out and setting: under `CCCC[C@H]1C(=O)N2CCC[C@@H]2C(=O)N[C@@H](CN)C(=O)N[C@@H](C(C)C)C(=O)N(C)[C@@H](Cc2ccccc2)C(=O)N[C@@H](Cc2ccc(O)cc2)C(=O)N2CSC[C@@H]2C(=O)N[C@@H](Cc2c[nH]c3ccccc23)C(=O)N[C@@H](Cc2ccc(O)cc2)C(=O)N[C@@H](CC(C)C)C(=O)N[C@H](C(=O)NCC(N)=O)CSCC(=O)N[C@@H](Cc2ccccc2)C(=O)N(C)[C@@H](Cc2ccccc2)C(=O)N1C` [Example 10071] ({CH2CO}-F[NMeF][NMeNle][dP][Dap]V[NMeF]Y[dThz]WYLCG-NH2; thioether N-13) stands 7.00 to 8.00; under `CCCC[C@H]1C(=O)N2CSC[C@@H]2C(=O)N[C@@H](CC(=O)O)C(=O)N[C@@H](C(C)C)C(=O)N(C)[C@@H](Cc2ccccc2)C(=O)N[C@@H](Cc2ccc(O)cc2)C(=O)N2CCC[C@@H]2C(=O)N[C@@H](Cc2c[nH]c3ccccc23)C(=O)N[C@@H](Cc2ccc(O)cc2)C(=O)N[C@@H](CC(C)C)C(=O)N[C@H](C(=O)NCC(N)=O)CSCC(=O)N[C@@H](Cc2ccccc2)C(=O)N(C)[C@@H](Cc2ccccc2)C(=O)N1C` [Example 10072] ({CH2CO}-F[NMeF][NMeNle][dThz]DV[NMeF]Y[dP]WYLCG-NH2; thioether N-13), 8.00 to 9.00.
